Measurements from ChEMBL document CHEMBL1156426, “Structure-based inhibitor design for an enzyme that binds different steroids: a potent inhibitor for human type 5 17beta-hydroxysteroid dehydrogenase” (J Biol Chem, 2007).

Tests used:
[1] = biological target: T1, Aldo-keto reductase family 1 member C3 (Homo sapiens, UniProt P42330); experiment: Inhibition of human 17beta HSD5 in HEK cells; format: cell-based, HEK293
T1 sequence (P42330 whole entry): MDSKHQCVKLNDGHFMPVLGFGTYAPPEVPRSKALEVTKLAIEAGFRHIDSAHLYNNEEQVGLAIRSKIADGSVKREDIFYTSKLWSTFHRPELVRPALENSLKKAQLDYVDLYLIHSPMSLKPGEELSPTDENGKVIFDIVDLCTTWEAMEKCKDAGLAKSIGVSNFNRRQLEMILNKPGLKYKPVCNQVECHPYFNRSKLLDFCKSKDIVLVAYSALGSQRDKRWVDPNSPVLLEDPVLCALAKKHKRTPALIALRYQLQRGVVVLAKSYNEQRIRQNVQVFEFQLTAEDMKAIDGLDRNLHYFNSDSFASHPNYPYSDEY

[2] = biological target: T1, Aldo-keto reductase family 1 member C3; experiment: Inhibition of human 17beta HSD5 mediated conversion of testosterone to delta-4-androstene-3,17-dione

Row | Compound | IC50 [1] [nM] | Ki [2] [nM]
1 | COCCOc1cc2c(cc1OC(N)=O)[C@H]1CC[C@@]3(C)[C@@H](CC[C@@]34CCC(C)(C)C(=O)O4)[C@@H]1CC2 | 9.5 | 
2 | CC1(C)CC[C@@]2(CC[C@H]3[C@@H]4CCc5cc(C(N)=O)ccc5[C@H]4CC[C@@]32C)OC1=O | 3.2 | 6.9
3 | COCCOc1cc2c(cc1C#N)[C@H]1CC[C@@]3(C)[C@@H](CC[C@@]34CCC(C)(C)C(=O)O4)[C@@H]1CC2 [EM1396] | 13 | 
